Measurements reported in PubChem BioAssay (NCI).
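Test compounds were applied to cells in 96-well plates for 48 hours at 5 doses. GI50: concentration for 50% inhibition of growth. TGI denotes the concentration required for complete inhibition of growth.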

Tests used:
Assay in all cases: NCI tumour cell line growth inhibition, 48 h
[1] = tested on: NCI-H460 lung
[2] = tested on: RXF 393 renal
[3] = tested on: HT29 colon
[4] = tested on: HL-60(TB) leukemia
[5] = tested on: OVCAR-4 ovarian
[6] = tested on: SF-268 CNS
[7] = tested on: LOX IMVI melanoma
[8] = tested on: SK-MEL-5 melanoma
[9] = tested on: ACHN renal
[10] = tested on: SR leukemia

SMILES	TGI [1] [µM]	TGI [2] [µM]	TGI [3] [µM]	TGI [4] [µM]	TGI [5] [µM]	TGI [6] [µM]	TGI [7] [µM]	TGI [8] [µM]	TGI [9] [µM]	GI50 [1] [µM]	GI50 [2] [µM]	GI50 [3] [µM]	GI50 [4] [µM]	GI50 [5] [µM]	GI50 [6] [µM]	GI50 [7] [µM]	GI50 [8] [µM]	GI50 [9] [µM]	TGI [10] [µM]
Oc1ccc(O)c(-n2cccn2)c1-n1cccn1	> 100	> 100	> 100	> 10	> 100	> 100	> 100	> 100	> 100										
C=C1C(=O)OC2(C)CCC1CC1OC1(C)CCC=C(C)CCC2O (stereo unspecified)	> 100		> 100	> 100	> 100	> 100	> 100	> 100	> 100										
COc1ccc2c(c1)[nH]c1c3ccc(OC)cc3oc(=O)c21	> 100	> 100	> 100	> 100	> 100	> 100	> 100	> 100	> 100										
COC(=O)C(=O)C(C#N)c1c(Cl)cccc1Cl (stereo unspecified)	> 100	> 100	> 100	> 100	> 100	> 100	> 100	> 100	> 100										
O=C1C(OC(=O)c2ccccc2)=C(c2ccc(O)cc2)C(=O)C(OC(=O)c2ccccc2)=C1c1ccc(O)cc1	> 100		> 100	> 100	> 100	> 100	> 100	> 100	> 100										
C[C@@H](C[C@H](CCO)c1ccccc1)c1ccc2ccccc2c1	3.42	2.91	2.8	4	2.88	3.09	2.96	2.91	3.01	1.79	1.45	1.43	1.91	1.51	1.48	1.6	1.57	1.65	
C/C(=N\Nc1n[nH]c(=S)n1N)c1c(O)cc(C)oc1=O	> 100		> 100	> 100	> 100	> 100	> 100		> 100										> 100
Cn1cc(-c2csc(-c3cn(C(=O)OC(C)(C)C)c4ccccc34)n2)c2cccnc21	17.7	9.29		21.9	47	35.3	18.6	13.2	20.4	3.92	2.26		2.61	6.73	8.01	3.53	2.56	7.33	
CC1=C(SCCC(=O)OC(C[Se]C2=C(C)C(=O)c3ccccc3C2=O)C(=O)NC(C)(C)C)C(=O)c2ccccc2C1=O (stereo unspecified)	2.06	3.33	3.39	2.39	2.76	2.88	2.9	2.86	2.9	0.44	1.73	1.78	0.68	1.45	1.55	1.4	1.52	1.56	
CCN1CCC(O)(/C=C/c2ccccc2)C(C(=O)/C=C/c2ccccc2)C1 (stereo unspecified)	4.03	3.24	3.73	4.08	8.01	7.36		12.2	3.23										
C#C[C@@H](CCCC)OC(=O)N[C@H](C)c1ccccc1	> 100		> 100	42	> 100		> 100	46.5	> 100										> 100
CCOC(=O)C(=O)Nc1nc2ccc(C)cc2s1	> 100		> 100		> 100	> 100		> 100	> 100										> 100
COc1ccc(/C=C2/CSC/C(=C/c3ccc(OC)c(OC)c3)C2=O)cc1OC	7.09	8.62	2.7	> 100	5.49	18.4	2.62	7.01	5.58										
COc1cc([C@@H]2c3cc4c(cc3[C@@H](NCc3cccc(F)c3)C3COC(=O)[C@@H]32)OCO4)cc(OC)c1O (stereo partly specified)	9.23	45.3	29.5	3.93	> 65	> 65	16.3	17.9	4.61										
O=C1C(=Cc2ccc(F)cc2)C(=O)c2ccccc21	> 100		> 100	> 100	> 100	> 100		> 100	> 100										
